Assays:
[1] = Coadministration of ripretinib with a strong CYP3A inhibitor (itraconazole): exposure; format: in vivo; conditions: coadministration of ripretinib with itraconazole (strong CYP3A inhibitor and P-gp inhibitor)
[2] = Coadministration of ripretinib with a proton-pump inhibitor (pantoprazole): exposure; format: in vivo; conditions: for differences in plasma exposure: ripretinib coadministered with pantoprazole
Method: The effect of a proton-pump inhibitor on the exposure of ripretinib was evaluated.

[3] = Food effect (high-fat meal) on ripretinib and Compound A exposure; format: in vivo; conditions: for AUC0-24h higher by / Cmax higher by: ripretinib 150 mg dose with a high-fat meal
Method: The effect of a high-fat breakfast on ripretinib and Compound A exposure was evaluated. A high fat meal consisted of approximately 150, 250, and 500-600 calories from protein, carbohydrate, and fat, respectively. […] Therefore, ripretinib may be taken with or without food at approximately same time each day.

patients with melanoma = assay: Phase 1 study of treating melanoma with ripretinib (efficacy, RECIST 1.1); format: in vivo, human
Method: This is a Phase 1 study to evaluate the efficacy of ripretinib in treating patients with melanoma. An efficacy cohort of 26 patients were enrolled. Each patient was administered 150 mg of ripretinib daily in repeated 28-day cycles until disease progression, unacceptable toxicity, or consent withdrawal. Patients who had disease progression at ripretinib 150 mg QD were allowed to escalate to 150 mg twice daily (BID) after the completion of Cycle 2. The efficacy endpoints includes Objective Response Rate (ORR), Disease Control Rate (DCR), Duration of Response (DOR) Time to Best Response (TBR), and progression-free survival (PFS) as determined by radiologic review using Response Evaluation Criteria in Solid Tumors (RECIST 1.1).
Prior tyrosine kinase inhibitor (TKI) treatment analysis. […] 17 of the 25 members of the cohort received no prior TKI and, among these members, the mPFS was determined to be 10.2 months and the ORR was determined to be 29.4% (5 out of 17 members). 8 of the 25 members received TKI treatment prior to receiving ripretinib and, among these members, the mPFS was determined to be 2.9 months and the ORR was determined to be 11% (1 out of […] members).
Mutational Analysis. An analysis of the efficacy of ripretinib based on baseline mutations of melanoma among the efficacy cohort was performed. […] L576P (Exon 11), K642E (Exon 13) and N822K/Y (Exon 17) were determined to be the most prevalent baseline mutations in this cohort.

Solubility = format: physicochemical
[4] = investigator assessment, Total (N = 26)
[5] = investigator assessment, Total, n 6

CCn1c(=O)c(-c2cc(NC(=O)Nc3ccccc3)c(F)cc2Br)cc2cnc(N)cc21 [Compound A]
increase in AUC0-inf [1]: 99%
increase in Cmax [1]: no change
differences in plasma exposure [2]: No clinically significant differences
AUC0-24h higher by [3]: 47%
Cmax higher by [3]: 66%

CCn1c(=O)c(-c2cc(NC(=O)Nc3ccccc3)c(F)cc2Br)cc2cnc(NC)cc21 [ripretinib]
increase in AUC0-inf [1]: 99%
increase in Cmax [1]: 36%
median PFS (patients with melanoma; 150 mg daily, 28-day cycles, whole efficacy cohort): 7.3 months
confirmed ORR (patients with melanoma; Exon 11 patients): 44%
median PFS (patients with melanoma; Exon 11 patients): 10.2 months
median duration of response (patients with melanoma; Exon 11 patients): 10.5 months
median time to confirmed response (patients with melanoma; Exon 11 patients): 1.9 months
confirmed ORR (patients with melanoma; Exon 17 patients): 18%
median PFS (patients with melanoma; Exon 17 patients): 13.6 months
median duration of response (patients with melanoma; Exon 17 patients): 8.1 months
median time to confirmed response (patients with melanoma; Exon 17 patients): 1.7 months
Confirmed Partial Response, % (patients with melanoma; KIT Exon 11 (N = 9)): (44.4) %
No Response Assessment, % (patients with melanoma; KIT Exon 11 (N = 9)): (11.1) %
Progressive Disease, % (patients with melanoma; KIT Exon 11 (N = 9)): (11.1) %
Stable Disease (≥6 wks), % (patients with melanoma; KIT Exon 11 (N = 9)): (33.3) %
Progressive Disease, % (patients with melanoma; KIT Exon 13 (N = 4)): (50.0) %
Stable Disease (≥6 wks), % (patients with melanoma; KIT Exon 13 (N = 4)): (50.0) %
Confirmed Complete Response, % (patients with melanoma; KIT Exon 17 (N = 11)): (9.1) %
Confirmed Partial Response, % (patients with melanoma; KIT Exon 17 (N = 11)): (9.1) %
Progressive Disease, % (patients with melanoma; KIT Exon 17 (N = 11)): (36) %
Stable Disease (≥6 wks), % (patients with melanoma; KIT Exon 17 (N = 11)): (45.5) %
Progressive Disease, % (patients with melanoma; KIT Exon 18 (N = 1)): 100.0%
Stable Disease (≥6 wks), % (patients with melanoma; KIT Exon Amplification (N = 1)): 100.0%
Objective Response Rate, % (patients with melanoma; investigator assessment, Total): (23.1) %
Time to Response, Median (patients with melanoma; investigator assessment, Total): 1.9 Months
Best Overall Response: Confirmed Complete Response, % (patients with melanoma; [4]): (3.8) %
Best Overall Response: Confirmed Partial Response, % (patients with melanoma; [4]): (19.2) %
Best Overall Response: No Response Assessment, % (patients with melanoma; [4]): (4) %
Best Overall Response: Progressive Disease, % (patients with melanoma; [4]): (31) %
Best Overall Response: Stable Disease (≥6 weeks duration), % (patients with melanoma; [4]): (42.3) %
Duration of Response, Max (patients with melanoma; [5]): 28.6 Months
Duration of Response, Mean (patients with melanoma; [5]): 10.5 Months
Duration of Response, Median (patients with melanoma; [5]): 9.1 Months
Duration of Response, Min (patients with melanoma; [5]): 4.1 Months
mPFS (patients with melanoma; no prior TKI treatment): 10.2 months
ORR (patients with melanoma; no prior TKI treatment (5 out of 17)): 29.4%
mPFS (patients with melanoma; prior TKI treatment): 2.9 months
ORR (patients with melanoma; prior TKI treatment (1 out of 9)): 11%
confirmed ORR (patients with melanoma; radiologic review using RECIST version 1.1, whole cohort (6 out of 26)): 23.1%
confirmed and unconfirmed ORR (patients with melanoma; whole cohort): 30.8%
median DOR (mDOR) (patients with melanoma; whole cohort): 9.1 months
effect on ripretinib exposure ([2]; 40 mg QD pantoprazole with 150 mg QD ripretinib): did not affect ripretinib exposure
differences in plasma exposure [2]: No clinically significant differences
solubility (Solubility): pH-dependent solubility
food effect, clinical significance ([3]; based on exposure-response analysis): not considered to be clinically significant
AUC0-24h higher by [3]: 30%
Cmax higher by [3]: 22%

— patent publication US20240122906A1, “METHODS OF TREATING MELANOMA WITH RIPRETINIB” (Deciphera Pharmaceuticals, LLC, priority 2021, published 2024)
